pIC50: −log10 of the molar value.
Tests used:
Format in all cases: cell-based
[1] = tested on: AML; assay: SynergyScreen of Pegcrisantaspase or Oncaspar with standard of care agents; conditions: agent combined with Pegcrisantaspase (FIG. 13A) or Oncaspar (FIG. 13B)
Source text: (§1) The special volcano plot of FIG. 9 relates compound sensitivity (as measured by ^10logIC50) to the presence of cancer hotspot mutations. […] The hotspot mutations were derived from statistical analyses of the recurrence patterns of mutations and copy number alterations in patients through separate studies. Axes and statistical analyses are identical to the volcano plot of FIG. 8. The cutoff p-level for significance is 0.32. […] Effect20 For determination of the effect of the compound on the activity of other anti-cancer agents in SynergyScreen™ experiments, a low, fixed concentration is used, corresponding to the concentration at which cell growth is inhibited by 20%. This concentration is determined using the dose-response curves of the single compounds. The concentration is the value on the x-as, corresponding to 80% viability of untreated at the y-axis.
(§2) See the tables depicted in FIG. 13A-FIG. 13B. Grey shading indicates synergistic activity. Light grey shading indicates one experiment and dark grey indicates two experiments. […] Example 5: mPEG-r-crisantaspase conjugates (Pegcrisantaspases) was tested in combination with ABT-737 against HL-60 cell line.

[2] = tested on: various cell lines; assay: Pegcrisantaspase in combination with other compounds (Example 4, FIG. 2); conditions: compound in combination with Pegcrisantaspase
[3] = tested on: DB; assay: Combination (synergy) cell proliferation assay with pegcrisantaspase; conditions: anti-cancer agent in combination with pegcrisantaspase; DB (DLBCL)
Protocol: (§3) Plate preparation. The stocks of the mixtures and single agents were diluted in DMSO or 0.9% sodium chloride to generate a 7-points dose-response series. After further 31.6 times dilution in 20 mM sterile Hepes buffer pH 7.4 (reference compounds) or medium (pegcrisantaspase), 5 μl of pegcrisantaspase solution, and 5 μl of reference compound was added to 40 μl pre-plated cells in duplicate in a 384-well assay plate. The final DMSO concentration during incubation was 0.4% in all wells.
(§4) Cell proliferation assay. A cell assay stock was thawed and diluted in appropriate medium and dispensed in a 384-well plate, depending on the cell line used, at a concentration of 800-3200 cells per well in […]: i.e., DB: 800 cells per well; RL: 1000 cells per well; MV-4-11: 1600 cells per well; KG-1, HL-60 and HT 3200 cells per well. For each used cell line the cell density was optimized previously. The margins of the plate were filled with phosphate-buffered saline. Plated cells were incubated in a humidified atmosphere of 5% CO2 at 37° C. After 24 hours, 5 μl of pegcrisantaspase solution, and 5 μl of reference compound was added, and plates were further incubated for another 72 hours. After 72 hours, plates were cooled in 30 minutes to room temperature and 25 μl of ATPlite 1Step™ (PerkinElmer) solution was added to each well, and subsequently shaken for 2 minutes. After 5 minutes of incubation in the dark at room temperature, the luminescence was recorded on an Envision multimode reader (PerkinElmer).
(§5) Controls: t=0 signal. On a parallel plate, 40 μl cells were dispensed in quadruplicate and incubated in a humidified atmosphere of 5% CO2 at 37° C. After 24 hours, plates were cooled to room temperature in 30 minutes. 5 μl DMSO-containing Hepes buffer, 5 μl 0.9% sodium chloride-containing medium and 25 μl ATPlite 1Step™ solution were added and subsequently mixed for 2 minutes. Luminescence was measured after 10 minute incubation (=luminescencet=0) in the dark.
(§6) Cell growth control. The cellular doubling times of all cell lines are calculated from the t=0 hours and t=end growth signals of the untreated cells. If the doubling time is out of specification (0.5-2.0 times deviating from historic average) the assay is invalidated.
(§7) Maximum signals. On each 384-well plate, the maximum luminescence was recorded after incubation for 72 hours without compound in the presence of 0.4% DMSO. All equivalent wells (usually 14) were averaged. This average is defined as: luminescenceuntreated,t=72h. Dose response curves. Accurate single agent IC50s are needed for combination analysis. For each single agent its dose-response signal was fitted by a 4-parameter logistics curve using XL-fit 5 (IDBS software):
(§8) luminescence=bottom+(top-bottom)/(1+10^(logIC50−log[cpd])−hill))
(§9) [cpd] is the compound concentration tested. hill is the Hill-coefficient. Bottom and top are the asymptotic minimum and maximum of the curve. Combination Index (CI) determination. The CI is one of the most widely used quantitative indications of synergy. The CI evaluates the concentrations needed to achieve a fixed-effect. A CI of below 1 indicates synergy.
(§10) CI is defined for a certain percentage cell viability (V), which is the signal related to a non-exposed control: V=100%×luminescencetreated,t=72h/luminescenceuntreated,t=72h. The concentrations of the two compounds cpd1 and cpd2 needed to reach a certain percentage cell viability V in combination are then compared to the concentrations needed as single agents:
(§11) IC50,cpd1 would signify the IC50 of cpd1 alone. The CI is labelled by %-effect, to follow conventions, so CI75 signifies the CI at 25% viability Curve shift analysis. This analysis provides a visual confirmation of synergy^1. The concentrations of the mixtures of compounds 1 and 2 (cpd1 and cpd2), and the single agents, were expressed in terms of IC50 equivalents (in ‘units’ of IC50):
(§12) The dose-response signal was fitted by a 4-parameter logistics curve using XL-fit 5 (IDBS software)

[4] = tested on: RL; assay: as above; conditions: anti-cancer agent in combination with pegcrisantaspase; RL (DLBCL)
Protocol: as §3, §4, §5, §6, §7, §8, §9, §10, §11, §12

[5] = tested on: DLBCL; assay: SynergyScreen of Pegcrisantaspase or Oncaspar with standard of care agents; conditions: agent combined with Pegcrisantaspase (FIG. 13A) or Oncaspar (FIG. 13B)
Source text: as §1, §2

[6] = tested on: HL-60 cell line; assay: Combination (synergy) cell proliferation assay with pegcrisantaspase; conditions: for conclusion (synergy): anti-cancer agent in combination with pegcrisantaspase, HL-60 (AML)
Protocol: as §3, §4, §5, §6, §7, §8, §9, §10, §11, §12

[7] = tested on: HT; assay: as above; conditions: anti-cancer agent in combination with pegcrisantaspase; HT (DLBCL)
Protocol: as §3, §4, §5, §6, §7, §8, §9, §10, §11, §12

[8] = tested on: KG-1; assay: as above; conditions: anti-cancer agent in combination with pegcrisantaspase; KG-1 (AML)
Protocol: as §3, §4, §5, §6, §7, §8, §9, §10, §11, §12

| Structure (SMILES) | effect in AML when used with Pegcrisantaspase or Oncaspar [1] | potentiation of the effect by Pegcrisantaspase [2] | conclusion (synergy) [3] | conclusion (synergy) [4] | effect in DLBCL when used with Pegcrisantaspase or Oncaspar [5] | conclusion (synergy) [6] | conclusion (synergy) [7] | conclusion (synergy) [8] | pIC50 ([6]; Homo sapiens, single agents, dose-response curves of FIG. 3, HL-60) | Emax ([6]; Homo sapiens, single agents, dose-response curves of FIG. 3, HL-60, read-out: maximal effect) [%] | pIC50 ([6]; Homo sapiens, therapeutic as single agent, HL-60, 72 hours) |
| --- | --- | --- | --- | --- | --- | --- | --- | --- | --- | --- | --- |
| Nc1ccn([C@@H]2O[C@H](CO)[C@@H](O)[C@@H]2O)c(=O)n1 [cytarabine] | increased effect | synergy | – | – | – | – | – | – | – | – | – |
| C[C@]12C=CC(=O)C=C1CC[C@@H]1[C@@H]2[C@@H](O)C[C@@]2(C)[C@H]1CC[C@]2(O)C(=O)CO [prednisolone] | – | – | no synergy (CI = 1.0: no synergy) | synergy (CI < 1.0: synergy) | increased effect | – | – | – | – | – | – |
| CC(C)C[C@H](NC(=O)[C@H](CCc1ccccc1)NC(=O)CN1CCOCC1)C(=O)N[C@@H](Cc1ccccc1)C(=O)N[C@@H](CC(C)C)C(=O)[C@@]1(C)CO1 [carfilzomib] | increased effect | – | synergy (CI < 1.0: synergy) | synergy (CI < 1.0: synergy) | increased effect | antagonism | no synergy/antagonism | synergy (CI < 1.0: synergy) | – | – | – |
| CC1(C)CCC(CN2CCN(c3ccc(C(=O)NS(=O)(=O)c4ccc(NCC5CCOCC5)c([N+](=O)[O-])c4)c(Oc4cnc5[nH]ccc5c4)c3)CC2)=C(c2ccc(Cl)cc2)C1 [venetoclax] | – | – | synergy (CI < 1.0: synergy) | synergy (CI < 1.0: synergy) | – | strong synergy (CI < 0.3: strong synergy) | no synergy (CI = 1.0: no synergy) | strong synergy (CI < 0.3: strong synergy) | – | – | – |
| Cn1c(=O)n(-c2ccc(C(C)(C)C#N)cc2)c2c3cc(-c4cnc5ccccc5c4)ccc3ncc21 [dactolisib] | increased effect | – | – | – | increased effect | synergy (CI < 1.0: synergy) | – | strong synergy (CI < 0.3: strong synergy) | – | – | – |
| CN(C)CC[C@H](CSc1ccccc1)Nc1ccc(S(=O)(=O)NC(=O)c2ccc(N3CCN(Cc4ccccc4-c4ccc(Cl)cc4)CC3)cc2)cc1[N+](=O)[O-] [ABT-737] | increased effect | synergy | synergy (CI < 1.0: synergy) | synergy (CI < 1.0: synergy) | increased effect | strong synergy (CI < 0.3: strong synergy) | synergy (CI < 1.0: synergy) | strong synergy (CI < 0.3: strong synergy) | 6.08 | 67 | 5.92 |

From patent US20230173042A1, “METHODS OF TREATMENT WITH ASPARAGINASE” (JAZZ PHARMACEUTICALS IRELAND LTD., priority 2017, published 2023)
